Measured values reported in patent US20250326785A1, “SODIUM SALT AND ETHANOLAMINE SALT OF 23-HYDROXYTORMENTIC ACID” (HUYABIO International, LLC, priority 2024, published 2025).

How the values were obtained:
[1] = tested on: human embryonic stem cells (hESCs); assay: Induction of differentiation of hESCs to cardiomyocytes; type: cell-based
Protocol: In order to test the effect of HBI-3808 on human embryonic stem cells (hESCs) on stimulating differentiation to cardiomyocytes (CMs), hESCs were incubated in the presence of media (see legend, FIG. 31) or 100 ng/ml HBI-3808.

[2] = tested on: Adult rats (Sprague Dawley) with MI by LAD ligation; assay: Rat myocardial infarction model: cardiac function by echocardiography; type: in vivo
From the text: Animal Model and Myocardial Infarction: Adult rats (Sprague Dawley (SD), body weight, -250 g) were used to generate a model with MI by LAD ligation of the heart as described in the previous study (Chongyu Zhang, Meng-Hsuan Hsieh, Song-Yi Wu, Shu-Hong Li, Jun Wu, Shi-Ming Liu, Hao-Ji Wei, Richard D. Weisel, Hsing-Wen Sung, Ren-Ke Li, “A self-doping conductive polymer hydrogel that can restore electrical impulse propagation at myocardial infarct to prevent cardiac arrhythmia and preserve ventricular function,” Biomaterials, Volume 231, 2020, 119672, ISSN 0142-9612). In brief, each rat was pre-medicated with 5% isoflurane in a chamber.
The heart was then exposed through a left anterolateral thoracotomy incision. […] Sham animals was treated identically except that the suture was passed through the myocardium beneath the LAD without ligation. The incision was then closed in layers using 3-0 Vicryl suture and 3-0 silk for the skin. Post-surgery treatment followed per UHN ARC requirement with antibiotics (Duplocillin LA, 15,000 IU/kg, I.M.) and analgesics (Buprenorphrine, 0.03 mg/Kg, SC), and the animals recovered from anesthesia in a warmed environment, under continuous monitoring and care for 1-2 hours.
The selected rats having similar FS were randomly divided into 6 groups: (1) Negative control group (treated with 40% SBCD); (2) Positive control group (with HBI-3802, 2 mg/kg /day); (3) Dose 1 (HBI-3808 2 mg/kg/day); (4) Dose 2 (HBI-3808 0.64 mg/kg day); (5) Dose 3 (HBI-3808 0.2 mg/kg/day); and (6) Sham control (No myocardial infarction and treated with 40% SBCD).
Treatments: The rats were treated by gastric gavage daily starting 6 days after MI for 2 weeks (Turner PV, Vaughn E, Sunohara-Neilson J, Ovari J, Leri F, “Oral gavage in rats: animal welfare evaluation,” J. Am. Assoc. Lab. Anim. Sci., 2012 Jan; 51(1): pp. 25-30. PMID: 22330864; PMCID: PMC3276962) as described in Table 18. The same volume of vehicle (1 mL/rat/day) was given to the rats in sham control group. Ten rats were studied in each group (N=10/group). The schematic plan is depicted in FIG. 35.
Oral Treatment: Six days after permanent LAD ligation, the selected rats received the first daily treatment. HBI-3808 (at 1 of the 3 doses) or 3802 at 2 mg/kg/day (1 ml/rat/day) delivered by gastric gavage daily for 14 days (2). 40% SB-CD alone (1 ml/rat/day) was similarly administered to rats in the control and sham groups.
Measurement of Cardiac Function: Cardiac function was evaluated by echocardiography prior to LAD ligation, prior to treatment (6 days post myocardial infarction), and at 7- and 21-days post first treatment (13 and 27 days post myocardial infarction). The end-point cardiac function was also evaluated using a pressure-volume catheter on Day 21 after first treatment (27 days post myocardial infarction).
Echocardiography: Each rat was pre-medicated with isoflurane in a chamber, and anesthesia was maintained during measurement with 2.5% isoflurane delivered using a nose cone. Echocardiographic examinations were performed using a GE Vivid-7 System with a 10S transducer. Depth was set at 2 cm. Short-axis views were obtained using the parasternal approach.
Left ventricular (LV) dimensions [end-diastolic dimension (LVEDD) and end-systolic dimension (LVESD)] from M mode at short axis views of the mid-level LV. Fractional shortening (% FS) was calculated using the equation: [(LVEDD−LVESD)/LVEDD]×100. Ejection fraction (% EF) was calculated using the equation: [(LVEDD^3−LVESD^3)/LVEDD^3]×100.

[3] = tested on: VEGF; assay: VEGF enrichment and angiogenesis induction by HBI-3808 conditioned media/supernatant; type: cell-based
[4] = Single-dose IV and oral pharmacokinetic study in rabbits; type: in vivo, New Zealand White Rabbits; conditions: rabbit
From the text: Eight groups (n=3) of rabbits received single doses of HBI-3802 or the sodium salt (form 5) HBI-3808 either by intravenous dosing or by oral dosing. HBI-3802 was formulated in 20% PG +80% (20% Captisol in pH 7.4 PBS buffer), and HBI-3808 was formulated in 5% NMP+15% EtOH+10% Tween 80+70% (20% Captisol in pH 7.4 PBS buffer). In addition, normal or enteric coated capsules were used to orally deliver the sodium salt (form 5) of HBI-3808. To allow determination of oral absolute bioavailability, both HBI-3802 and HBI-3808 were delivered IV at a dose of 0.3 mg/kg and blood samples obtained at 0, 0.25, 0.5, 0.75, 1,2,4,8,12,24,48, and 72 hours after dosing for derivation of plasma used to determine plasma concentrations by LC-MS. The HBI-3802 0.3 mg/kg plasma concentrations were compared to plasma concentrations obtained at the same time points from rabbits receiving single oral doses of […] at 1 or 5 mg/kg. The HBI-3808 0.3 mg/kg plasma concentrations were compared to plasma concentrations from groups of rabbits receiving oral gavage of 1 mg/kg HBI-3808 solution or 5 mg/kg HBI-3808 solution and from rabbits receiving 5 mg/kg of the sodium salt (form 5) of HBI-3808 in normal capsules or in enteric coated capsules.

[5] = 0.64 mg/kg/day, compared to 0.2 mg/kg HBI-3808, p<0.02
[6] = 2 mg/kg/day, 21 days after treatment, p<0.01
[7] = PO 5 mg/kg in enteric coated capsules

C[C@@H]1CC[C@]2(C(=O)O)CC[C@]3(C)C(=CCC4[C@@]5(C)C[C@@H](O)[C@H](O)[C@@](C)(CO)C5CC[C@]43C)C2[C@]1(C)O (stereo partly shown) [HBI-3808, 23-hydroxytormentic acid]
differentiation of hESCs to cardiomyocytes (CMs) ([1]; 100 ng/ml HBI-3808, day 13): successfully stimulated hESCs to differentiate into viable, beating CMs by day 13
modulation of cardiac-associated genes ([1]; 100 ng/ml, days 1, 3, 6, 9, 13): produced detectable modulation of cardiac-associated genes
difference of cardiac function (EF) Days 27 vs 6 post infarction ([2]; 0.16 mg of HBI-3808): showed improvement in cardiac function compared with Day 6
difference of cardiac function (EF) Days 27 vs 6 post infarction ([2]; 0.2 mg/kg/day): prevented further deterioration of cardiac dysfunction
Left ventricular end systolic dimension (LVESD) ([2]; 0.2 mg/kg/day, vs control at 21 days after treatment, p<0.01): smaller LVESD compared with control group
Ejection fraction (EF) / cardiac function ([2]; 0.2 mg/kg/day, vs control over 21 days, p<0.01): better cardiac function than the control group
Fractional shortening (FS) / cardiac function ([2]; 0.2 mg/kg/day, vs control, p<0.01): better function compared with the control group
systolic dilation between Day 6 and Day 21 ([2]; 0.64 mg/kg/day): reversal in systolic dilation
Ejection fraction (EF) [2, 5]: improved EF
Fractional shortening (FS) / cardiac function [2, 5]: improved cardiac function
diastolic dilation between Day 6 and 21 ([2]; 2 mg/kg/day): no diastolic dilation
difference of cardiac function (EF) Days 27 vs 6 post infarction ([2]; 2 mg/kg/day): improvement in cardiac function compared with Day 6, which was significantly illustrated
efficacy compared with HBI-3802 ([2]; 2 mg/kg/day): greater efficacy compared with HBI-3802
systolic dilation between Day 6 and Day 21 ([2]; 2 mg/kg/day): reversal in systolic dilation
Ejection fraction (EF) after treatment ([2]; 2 mg/kg/day gastric gavage 14 days from day 6 post MI, vs 0.64 and 0.2 mg/kg HBI-3808 and control): increased significantly
cardiac function (conclusion) ([2]; 2 mg/kg/day oral): improved both diastolic and systolic function
cardiac function (EF) compared with 2 mg/kg HBI-3802 group [2, 6]: improvement in cardiac function
cardiac function (FS) compared with 2 mg/kg HBI-3802 group [2, 6]: improvement in cardiac function
Left ventricular end systolic dimension (LVESD) ([2]; 2 mg/kg/day, vs 2 mg/kg HBI-3802, 0.64 and 0.2 mg/kg HBI-3808 and control, p<0.01): smaller
Left ventricular end diastolic dimension (LVEDD) ([2]; 2 mg/kg/day, vs 0.64, 0.2 mg/kg and control groups, p<0.01): smaller
Fractional shortening (FS) ([2]; 2 mg/kg/day, vs 0.64 and 0.2 mg/kg HBI-3808 and control): increased FS significantly
improvement of cardiac function (conclusion) ([2]; 0.64 or 0.2 mg/kg/day): lower-magnitude improvement of cardiac function
dose response of cardiac function restoration ([2]; 2, 0.64, 0.2 mg/kg/day): had a dose response
VEGF in media harvested from treated CMs [3]: enriched in VEGF
angiogenesis in supernatant of CM cell suspensions [3]: induces angiogenesis

CC1CCC2(C(=O)[O-])CCC3(C)C(=CCC4C5(C)CC(O)C(O)C(C)(CO)C5CCC43C)C2C1(C)O.[Na+] (stereo not shown) [HBI-3808 sodium salt of Pattern 5, sodium salt of 23-hydroxytormentic acid]
bioavailability ([4]; PO 1 mg/kg in 5% NMP+15% EtOH+10% tween 80+70% (20% Captisol in pH 7.4 PBS buffer)): 17.9%
bioavailability ([4]; PO 5 mg/kg in 5% NMP+15% EtOH+10% tween 80+70% (20% Captisol in pH 7.4 PBS buffer)): 27.7%
absorption onset delayed until [4, 7]: 8 h
bioavailability [4, 7]: 10.9%
bioavailability ([4]; PO 5 mg/kg in normal capsules): 10.7%
dose dependence of Cmax and AUC ([4]; PO 1 and 5 mg/kg solution): dose proportional increases with low variability
